Data published in paper PMC12207590, “Substrate Specificity of the Organic Cation Transporters MATE1 and MATE2K and Functional Overlap with OCT1 and OCT2” (Journal of Medicinal Chemistry, 2025).
Read-outs that look alike come from different tables or passages of the source.

Columns and labels:
[1] = target: T1, MATE2K (Homo sapiens, UniProt Q86VL8); assay: Uptake ratio in MATE2K-overexpressing HEK293 cells vs empty vector (2.5 μM, 1 min, HPLC-MS/MS); assay type: cell-based; set-up: key to MATE2 substrate*: 1 = substrate; 0 = no substrate; conditions: for MATE2 substrate*: Table S4; for MATE2: uptake ratio MATE2K-overexpressing vs empty-vector HEK293 cells, mean
T1 sequence (Q86VL8 1-566 isoform Q86VL8-3): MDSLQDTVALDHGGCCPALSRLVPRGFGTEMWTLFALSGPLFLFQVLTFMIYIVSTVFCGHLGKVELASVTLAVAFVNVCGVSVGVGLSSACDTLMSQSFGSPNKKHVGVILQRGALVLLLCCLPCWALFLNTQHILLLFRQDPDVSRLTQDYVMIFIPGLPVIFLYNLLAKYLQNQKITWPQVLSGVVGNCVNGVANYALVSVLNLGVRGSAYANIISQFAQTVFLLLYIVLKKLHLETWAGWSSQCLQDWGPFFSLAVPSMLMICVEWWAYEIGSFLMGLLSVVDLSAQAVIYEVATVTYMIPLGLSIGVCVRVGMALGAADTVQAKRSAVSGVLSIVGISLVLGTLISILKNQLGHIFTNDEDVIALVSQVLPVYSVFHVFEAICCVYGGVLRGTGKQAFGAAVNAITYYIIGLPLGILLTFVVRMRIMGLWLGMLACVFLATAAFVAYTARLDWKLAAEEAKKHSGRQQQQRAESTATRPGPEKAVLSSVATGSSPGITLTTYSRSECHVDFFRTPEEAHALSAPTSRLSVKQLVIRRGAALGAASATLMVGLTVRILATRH

[2] = target: T2, MATE1 (Homo sapiens, UniProt Q96FL8); assay: Uptake ratio in MATE1-overexpressing HEK293 cells vs empty vector (2.5 μM, 1 min, HPLC-MS/MS); assay type: cell-based; set-up: key to MATE1 substrate*: 1 = substrate; 0 = no substrate; conditions: for MATE1 substrate*: Table S4; for MATE1: uptake ratio MATE1-overexpressing vs empty-vector HEK293 cells, mean
T2 sequence (Q96FL8 1-570): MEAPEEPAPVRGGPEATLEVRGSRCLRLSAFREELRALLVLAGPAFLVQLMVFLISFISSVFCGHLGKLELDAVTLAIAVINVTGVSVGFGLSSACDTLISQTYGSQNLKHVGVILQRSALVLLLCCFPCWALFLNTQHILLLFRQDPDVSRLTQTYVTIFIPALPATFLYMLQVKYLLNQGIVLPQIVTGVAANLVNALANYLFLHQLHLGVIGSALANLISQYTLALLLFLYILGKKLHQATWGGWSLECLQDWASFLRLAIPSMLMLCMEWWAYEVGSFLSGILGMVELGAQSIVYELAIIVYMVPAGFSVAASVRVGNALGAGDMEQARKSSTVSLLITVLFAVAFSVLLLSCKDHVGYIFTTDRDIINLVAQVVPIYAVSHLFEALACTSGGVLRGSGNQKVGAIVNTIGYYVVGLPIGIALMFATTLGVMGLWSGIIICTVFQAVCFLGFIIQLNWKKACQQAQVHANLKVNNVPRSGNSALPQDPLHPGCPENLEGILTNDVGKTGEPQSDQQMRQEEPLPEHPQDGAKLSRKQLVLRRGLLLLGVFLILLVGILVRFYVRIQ

[3] = target: T2, MATE1; assay: Concentration-dependent uptake (Michaelis-Menten) via MATE1 in HEK293 cells
[4] = target: T3, OCT2 (Homo sapiens, UniProt O15244); assay: Uptake in OCT2-overexpressing HEK293 cells (substrate yes/no); assay type: cell-based; set-up: key: 1 = substrate; 0 = no substrate; conditions: Table S4
T3 sequence (O15244 1-555): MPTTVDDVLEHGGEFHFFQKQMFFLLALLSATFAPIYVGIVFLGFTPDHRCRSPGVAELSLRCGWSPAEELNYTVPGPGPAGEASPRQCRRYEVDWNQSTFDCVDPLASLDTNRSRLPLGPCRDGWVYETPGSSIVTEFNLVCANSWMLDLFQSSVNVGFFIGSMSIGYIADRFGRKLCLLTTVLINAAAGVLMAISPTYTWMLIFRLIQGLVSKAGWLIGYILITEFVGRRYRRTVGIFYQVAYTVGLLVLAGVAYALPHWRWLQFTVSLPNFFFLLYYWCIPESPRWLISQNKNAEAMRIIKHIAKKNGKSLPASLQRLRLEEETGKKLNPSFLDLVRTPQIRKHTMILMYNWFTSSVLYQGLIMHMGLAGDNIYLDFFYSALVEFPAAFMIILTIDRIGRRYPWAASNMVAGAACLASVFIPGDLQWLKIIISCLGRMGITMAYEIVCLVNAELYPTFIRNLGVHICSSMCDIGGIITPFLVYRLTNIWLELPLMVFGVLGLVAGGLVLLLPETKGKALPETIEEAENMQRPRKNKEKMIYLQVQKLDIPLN
Protocol: (§1) The cell lines were generated using the recombinant site-specific Flp-In^TM system as previously described. , All cell lines used in the transport experiments were cultured at 37 °C and 5% CO2 with Dulbecco’s Modified Eagle’s Medium (DMEM) supplemented with 10% (v/v) FBS and the antibiotics penicillin (100 U/mL) and streptomycin (100 μg/mL).

[5] = target: T4, OCT1 (Homo sapiens, UniProt O15245); assay: Uptake in OCT1-overexpressing HEK293 cells (substrate yes/no); assay type: cell-based; set-up: key: 1 = substrate; 0 = no substrate; conditions: Table S4
T4 sequence (O15245 1-554): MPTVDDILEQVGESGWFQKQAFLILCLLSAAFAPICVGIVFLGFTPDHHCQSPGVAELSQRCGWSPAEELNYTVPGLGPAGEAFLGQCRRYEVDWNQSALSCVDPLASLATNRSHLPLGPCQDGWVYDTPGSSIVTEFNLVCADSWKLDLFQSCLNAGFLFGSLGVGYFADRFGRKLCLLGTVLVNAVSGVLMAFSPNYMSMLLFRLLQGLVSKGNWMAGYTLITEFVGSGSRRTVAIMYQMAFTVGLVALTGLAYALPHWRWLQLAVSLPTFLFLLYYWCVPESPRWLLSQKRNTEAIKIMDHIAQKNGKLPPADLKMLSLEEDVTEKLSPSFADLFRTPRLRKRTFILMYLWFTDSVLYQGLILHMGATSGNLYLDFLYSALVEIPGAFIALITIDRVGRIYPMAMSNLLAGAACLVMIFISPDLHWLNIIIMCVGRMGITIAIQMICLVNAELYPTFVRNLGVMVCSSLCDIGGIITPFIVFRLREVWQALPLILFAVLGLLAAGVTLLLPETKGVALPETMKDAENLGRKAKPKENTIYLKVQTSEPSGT
Protocol: as §1

[6] = target: T1, MATE2K; assay: Concentration-dependent uptake (Michaelis-Menten) via MATE2K in HEK293 cells; conditions: HEK293, 1 min, net uptake; for Km: read-out: MATE2K KM
[7] = system: MATE1, MATE2K, OCT1, OCT2; assay: Substrate specificity and overlap among the four transporters (ratio cutoff 2); assay type: cell-based, human; conditions: transport ratio cutoff of 2
[8] = target: T2, MATE1; conditions: for MATE1 Clint: human, pH 7.4
[9] = target: T1, MATE2K; assay: in vitro; conditions: other cell line, pH 7.4
[10] = target: T2, MATE1; assay: in vitro; conditions: other cell line, pH 7.4
[11] = human; cited from earlier work
[12] = system: renal MATE1; conditions: 800 mg cimetidine; cited from earlier work
[13] = fold uptake over empty vector, 2.5 μM, 1 min

## CN(C)CCc1c[nH]c2ccc(C[C@H]3COC(=O)N3)cc12 [Zolmitriptan]
[1]
  MATE2 substrate*: 1
[1]; 2.5 μM, 1 min
  MATE2: 5.51
[2]
  MATE1 substrate*: 1
[2]; 2.5 μM, 1 min
  MATE1: 11.83
[3]; HEK293, 1 min, net uptake
  MATE1 Vmax: 2992 pmol × mg protein^–1 × min^–1
[4]
  OCT2 substrate*: 0
[5]
  OCT1 substrate*: 1

## CN(C)CCOC1=Cc2ccccc2Sc2ccc(Cl)cc21 [Zotepin]
[1]
  MATE2 substrate*: 0
[1]; 2.5 μM, 1 min
  MATE2: 1.34
[2]
  MATE1 substrate*: 0
[2]; 2.5 μM, 1 min
  MATE1: 0.51
[5]
  OCT1 substrate*: 0

## CN(C)C(=O)Oc1cccc([N+](C)(C)C)c1 [Neostigmine]
[1]
  MATE2K ratio: 5.31
[6]
  MATE2K Vmax: 3139 pmol × mg protein^–1 × min^–1
  Km: 385 µM
[2]
  MATE1 ratio: 32.31
[3]
  MATE1 Vmax: 7255 pmol × mg protein^–1 × min^–1
[7]
  Substrate specificity among MATE1, MATE2K, OCT1, OCT2: All four transporters
[8]
  Km: 160 µM
  MATE1 Clint: 45.2 μL × mg protein^–1 × min^–1

## c1c2c(cc3c1OCO3)-c1cc3ccc4c(c3c[n+]1CC2)OCO4 [Coptisine]
[1]
  MATE2K ratio: 6.48
[6]
  MATE2K Vmax: 246 pmol × mg protein^–1 × min^–1
  Km: 1.88 µM
[2]
  MATE1 ratio: 9.90
[9]
  microsomal CLint: 131 µL/min/mg
[3]
  MATE1 Vmax: 2901 pmol × mg protein^–1 × min^–1
[10]
  microsomal CLint: 145 µL/min/mg
[8]
  Km: 20 µM
  MATE1 Clint: 145 μL × mg protein^–1 × min^–1

## O=C1Cc2cc(CCN3CCN(c4nsc5ccccc45)CC3)c(Cl)cc2N1 [Ziprasidone]
[1]
  MATE2 substrate*: 0
[1]; 2.5 μM, 1 min
  MATE2: 1.25
[2]
  MATE1 substrate*: 0
[2]; 2.5 μM, 1 min
  MATE1: 1.2
[4]
  OCT2 substrate*: 0
[5]
  OCT1 substrate*: 0

## CN(C)CCc1c[nH]c2ccc(C[C@H]3COC(=O)N3)cc12 [Zolmitriptan (S), Zolmitriptan]
[1]
  MATE2 substrate*: 1
[1]; 2.5 μM, 1 min
  MATE2: 5.38
[6]
  MATE2K Vmax: 1662 pmol × mg protein^–1 × min^–1
  Km: 94.5 µM
[2]
  MATE1 substrate*: 1
[2]; 2.5 μM, 1 min
  MATE1: 13.34
[3]; HEK293, 1 min, net uptake
  MATE1 Vmax: 2849 pmol × mg protein^–1 × min^–1
[4]
  OCT2 substrate*: 0
[5]
  OCT1 substrate*: 1

## CN/C(=N\CCSCc1nc[nH]c1C)NC#N [Cimetidine]
[1]; Table S1, 2.5 μM, 1 min
  MATE2K ratio in this study: 3.60
[1]; [13]
  MATE2K ratio: 3.60
[1]; mean ratio of uptake in MATE2K-overexpressing HEK293 cells vs empty vector, 2.5 μM, 1 min
  MATE2 (uptake ratio): 3.6
[11]
  eliminated unchanged via the kidneys: more than 70%
[2]; Table S1, 2.5 μM, 1 min
  MATE1 ratio in this study: 11.52
[2]; [13]
  MATE1 ratio: 11.52
[2]; fold uptake over empty vector, 2.5 μM, 1 min, listed as cimetidine
  MATE1 ratio: above 2
[2]; mean ratio of uptake in MATE1-overexpressing HEK293 cells vs empty vector, 2.5 μM, 1 min
  MATE1 (uptake ratio): 11.52
[12]
  inhibition of metformin elimination: approximately 43%

## CN(C)CCc1c[nH]c2ccc(C[C@H]3COC(=O)N3)cc12 [Zolmitriptan (R), Zolmitriptan]
[1]
  MATE2 substrate*: 1
[1]; 2.5 μM, 1 min
  MATE2: 6.48
[2]
  MATE1 substrate*: 1
[2]; 2.5 μM, 1 min
  MATE1: 12.88
[3]; HEK293, 1 min, net uptake
  MATE1 Vmax: 2624 pmol × mg protein^–1 × min^–1
[4]
  OCT2 substrate*: 1
[5]
  OCT1 substrate*: 1
